Laboratory results from ChEMBL document CHEMBL2321705, “Novel diaryl ureas with efficacy in a mouse model of malaria” (Bioorg Med Chem Lett, 2013).
Active and inactive are the calls of the source. The rule behind the calls is not given here.

How the values were obtained:
Plasmodium falciparum [1] = experiment: Antimalarial activity against Plasmodium falciparum delta pfpm4 assessed as growth inhibition; assay type: functional, organism-based
Plasmodium falciparum [2] = experiment: Antimalarial activity against Plasmodium falciparum delta pfpm3 assessed as growth inhibition; assay type: functional, organism-based
Plasmodium falciparum [3] = experiment: Antimalarial activity against Plasmodium falciparum delta pfpm2 assessed as growth inhibition; assay type: functional, organism-based
Plasmodium falciparum [4] = experiment: Antimalarial activity against Plasmodium falciparum delta pfpm1 assessed as growth inhibition; assay type: functional, organism-based
Plasmodium falciparum [5] = experiment: Antimalarial activity against chloroquine-resistant Plasmodium falciparum Dd2 assessed as growth inhibition; assay type: functional, organism-based
Plasmodium berghei [6] = experiment: Antimalarial activity against Plasmodium berghei infected CD-1 mouse assessed as survival beyond 8 days at 128 mg/kg, sc bid; assay type: functional, organism-based; set-up: dose 128 mg/kg
Plasmodium berghei [7] = experiment: Antimalarial activity against Plasmodium berghei infected CD-1 mouse assessed as survival at 128 mg/kg, sc bid measured on day 31; assay type: functional, organism-based; set-up: dose 128 mg/kg
Plasmodium falciparum [8] = experiment: Antimalarial activity against Plasmodium falciparum 3D7 assessed as inhibition of parasite growth; assay type: functional, organism-based
Plasmodium falciparum [9] = experiment: Antimalarial activity against Plasmodium falciparum Dd2 assessed as inhibition of parasite growth; assay type: functional, organism-based
Plasmodium berghei [10] = experiment: Antimalarial activity against Plasmodium berghei infected CD-1 mouse assessed as survival beyond 8 days at 256 mg/kg, sc bid; assay type: functional, organism-based; set-up: dose 256 mg/kg
[11] = Inhibition of Plasmodium falciparum cysteine protease plasmepsin 2
Plasmodium falciparum [12] = experiment: Antimalarial activity against Plasmodium falciparum D6 assessed as inhibition of parasite growth; assay type: functional, organism-based
Plasmodium falciparum [13] = experiment: Antimalarial activity against Plasmodium falciparum W2 assessed as inhibition of parasite growth; assay type: functional, organism-based

Structure (SMILES) | EC50 (Plasmodium falciparum [8]) | EC50 (Plasmodium falciparum [9]) | further results
O=C(Nc1ccc(Cl)c(C(F)(F)F)c1)Nc1cc(C(F)(F)F)ccc1Oc1ccc(Cl)cc1Cl | 0.037 µM | 0.055 µM | IC50 (Plasmodium falciparum [1]): 0.066 µM; IC90 (Plasmodium falciparum [1]): 0.086 µM; IC50 (Plasmodium falciparum [2]): 0.035 µM; IC90 (Plasmodium falciparum [2]): 0.07 µM; IC50 (Plasmodium falciparum [3]): 0.07 µM; IC90 (Plasmodium falciparum [3]): 0.088 µM; IC50 (Plasmodium falciparum [4]): 0.07 µM; IC90 (Plasmodium falciparum [4]): 0.088 µM; IC50 (Plasmodium falciparum [5]): 0.042 µM; IC90 (Plasmodium falciparum [5]): 0.083 µM; Survival (Plasmodium berghei [6]): Active; Survival (Plasmodium berghei [7]): inactive
COc1cc(Cl)ccc1Oc1ccc(Cl)cc1Cl | 100 µM | 76 µM | –
O=C(Nc1ccc(Cc2ccccc2)cc1)Nc1ccc(Oc2ccc(Cl)cc2Cl)c(C(F)(F)F)c1 | 1.3 µg/mL | 1.2 µg/mL | –
CN(C(=O)N(C)c1ccc(Cl)c(C(F)(F)F)c1)c1cc(Oc2ccc(Cl)cc2Cl)cc(C(F)(F)F)c1 | 1.8 µg/mL | 2.4 µg/mL | –
O=C(Nc1cc(Cl)cc(Cl)c1)Nc1cc(C(F)(F)F)ccc1Oc1ccc(Cl)cc1Cl | 0.047 µg/mL | 0.046 µg/mL | –
CC(=O)Nc1cc(Cl)ccc1Oc1ccc(Cl)cc1Cl | 33 µM | 48 µM | –
CS(=O)(=O)Nc1cc(Cl)ccc1Oc1ccc(Cl)cc1Cl | 38 µM | 60 µM | –
O=C(Nc1cccnc1)Nc1cc(C(F)(F)F)ccc1Oc1ccc(Cl)cc1Cl | 0.6 µg/mL | 1 µg/mL | –
O=C(Nc1ccc(Cc2ccccc2)cc1)Nc1cc(C(F)(F)F)ccc1Oc1ccc(Cl)cc1Cl | 0.6 µg/mL | 0.3 µg/mL | –
N#Cc1cc(Cl)ccc1Oc1ccc(Cl)cc1Cl | 20 µM | 43 µM | –
O=C(Nc1ccc(F)c(C(F)(F)F)c1)Nc1cc(C(F)(F)F)ccc1Oc1ccc(Cl)cc1Cl | 0.13 µM | 0.15 µM | –
O=C(Nc1cc(C(F)(F)F)ccc1Oc1ccc(Cl)cc1Cl)NC1c2ccccc2-c2ccccc21 | 0.8 µg/mL | 1.4 µg/mL | –
O=C(Nc1cccc(S(=O)(=O)C(F)(F)F)c1)Nc1cc(C(F)(F)F)ccc1Oc1ccc(Cl)cc1Cl | 0.077 µg/mL | 0.077 µg/mL | –
O=C(Nc1ccc(Cl)c(Cl)c1)Nc1cc(Cl)ccc1Oc1ccc(Cl)cc1Cl | 1.9 µM | 2.5 µM | Survival (Plasmodium berghei [10]): inactive
Nc1cc(Cl)ccc1Oc1ccc(Cl)cc1Cl | 52 µM | 55 µM | –
O=C(Nc1ccc(Cl)c(Cl)c1)Nc1cc(C(F)(F)F)ccc1Oc1ccc(Cl)cc1Cl | 0.2 µM | 0.2 µM | –
N=C(N)c1ccc(NC(=O)Nc2ccc(Oc3ccccc3)cc2)cc1 | – | – | IC50 [11]: 17 µM; EC50 (Plasmodium falciparum [12]): 0.46 µM; EC50 (Plasmodium falciparum [13]): 0.087 µM
O=C(Nc1cc(C(F)(F)F)ccc1Oc1ccc(Cl)cc1Cl)Nc1ccccc1-c1ccccc1 | 0.6 µg/mL | 0.9 µg/mL | –
O=C(O)c1cc(Cl)ccc1Oc1ccc(Cl)cc1Cl | > 150 µM | > 150 µM | –
O=C(Nc1ccc2ccccc2c1)Nc1cc(C(F)(F)F)ccc1Oc1ccc(Cl)cc1Cl | 0.61 µM | 0.41 µM | Survival (Plasmodium berghei [10]): inactive
N#Cc1ccc(NC(=O)Nc2cc(C(F)(F)F)ccc2Oc2ccc(Cl)cc2Cl)cc1C(F)(F)F | 0.13 µM | 0.075 µM | –
NC(=O)Nc1ccc(Oc2ccc(Cl)cc2O)c(Cl)c1 | 100 µM | 100 µM | –
CC(C)(N)c1cc(Cl)ccc1Oc1ccc(Cl)cc1Cl | 7.2 µM | 1.8 µM | –
NC(=O)Nc1cc(Cl)ccc1Oc1ccc(Cl)cc1Cl | 18 µM | 18 µM | –

Structure (SMILES) | EC50 (Plasmodium falciparum [8]) | EC50 (Plasmodium falciparum [9]) | further results
O=C(Nc1cccc(Oc2ccccc2)c1)Nc1cc(C(F)(F)F)ccc1Oc1ccc(Cl)cc1Cl | 0.3 µg/mL | 0.2 µg/mL | –
N#Cc1cccc(NC(=O)Nc2cc(C(F)(F)F)ccc2Oc2ccc(Cl)cc2Cl)c1 | 0.14 µg/mL | 0.14 µg/mL | –
O=C(Nc1cc(C(F)(F)F)cc(C(F)(F)F)c1)Nc1cc(C(F)(F)F)ccc1Oc1ccc(Cl)cc1Cl | 0.037 µg/mL | 0.044 µg/mL | –
O=C(Nc1ccc(Cl)cc1)Nc1cc(Cl)ccc1Oc1ccc(Cl)cc1Cl | 2 µM | 5 µM | Survival (Plasmodium berghei [10]): inactive
CN(C)c1ccc(NC(=O)Nc2cc(C(F)(F)F)ccc2Oc2ccc(Cl)cc2Cl)cc1 | 1.4 µg/mL | 1.8 µg/mL | –
O=C(Nc1ccccc1)Nc1cc(Cl)ccc1Oc1ccc(Cl)cc1Cl | 0.73 µM | 1.2 µM | –
O=C(NCc1ccco1)Nc1cc(C(F)(F)F)ccc1Oc1ccc(Cl)cc1Cl | 2.3 µg/mL | 2.6 µg/mL | –
O=C(Nc1ccc(-c2ccccc2)cc1)Nc1cc(C(F)(F)F)ccc1Oc1ccc(Cl)cc1Cl | 0.29 µg/mL | 0.29 µg/mL | –
N#Cc1ccc(NC(=O)Nc2cc(C(F)(F)F)ccc2Oc2ccc(Cl)cc2Cl)cc1C#N | 0.081 µM | 0.14 µM | –
O=C(Nc1ccc2c(c1)OCO2)Nc1cc(C(F)(F)F)ccc1Oc1ccc(Cl)cc1Cl | 1.1 µg/mL | 1.2 µg/mL | –
Nc1ccc(NC(=O)Nc2cc(C(F)(F)F)ccc2Oc2ccc(Cl)cc2Cl)cc1C(F)(F)F | 1.5 µM | 3.6 µM | –
NC(=O)c1cc(Cl)ccc1Oc1ccc(Cl)cc1Cl | 73 µM | 60 µM | –
O=C(Nc1cc(C(F)(F)F)ccc1Oc1ccc(Cl)cc1Cl)Nc1cccc2ccccc12 | 1.2 µM | 0.81 µM | Survival (Plasmodium berghei [10]): inactive
O=C(Nc1ccc(Oc2ccc(Cl)cc2Cl)c(C(F)(F)F)c1)Nc1ccccc1Cc1ccccc1 | 0.5 µg/mL | 0.6 µg/mL | –
O=C(Nc1ccc(Oc2ccc(Cl)cc2O)c(Cl)c1)N1CCOCC1 | 100 µM | 100 µM | –
O=C(Nc1cccc(Cc2ccccc2)c1)Nc1cc(C(F)(F)F)ccc1Oc1ccc(Cl)cc1Cl | 0.3 µg/mL | 0.3 µg/mL | –
O=S(=O)(Nc1cc(Cl)ccc1Oc1ccc(Cl)cc1Cl)c1ccccc1 | 4.7 µM | 5.1 µM | –
COc1ccc(NC(=O)Nc2cc(C(F)(F)F)ccc2Oc2ccc(Cl)cc2Cl)cc1C(F)(F)F | 0.18 µM | 0.18 µM | –
O=C(Nc1ccc([N+](=O)[O-])c(C(F)(F)F)c1)Nc1cc(C(F)(F)F)ccc1Oc1ccc(Cl)cc1Cl | 0.072 µM | 0.072 µM | –
N#Cc1ccc(NC(=O)Nc2cc(C(F)(F)F)ccc2Oc2ccc(Cl)cc2Cl)cc1 | 0.14 µg/mL | 0.11 µg/mL | –
Clc1ccc(Oc2ccc(Cl)cc2NCc2ccccc2)c(Cl)c1 | 9.7 µM | 9.4 µM | –
NCc1cc(Cl)ccc1Oc1ccc(Cl)cc1Cl | 2.3 µM | 4.3 µM | –
O=C(Nc1cc(C(F)(F)F)ccc1Oc1ccc(Cl)cc1Cl)Nc1cc(C(F)(F)F)ccc1N1CCCCC1 | 3.9 µg/mL | 2.7 µg/mL | –
